Legend:
NS3/4A protease complex = molecular target: T1, NS3/4A protease complex (UniProt P27958); experiment: HCV NS3/4A protease complex enzyme assay (strain not stated); format: biochemical; conditions: Table 2; strain and unit inferred
T1 construct: fused on or other part: three-lysine solubilising tail at the C-terminus of NS4A; probably a His tag from pET21b (Ni-NTA purification)
From the text: The purpose of this in vitro assay was to measure the inhibition of HCV NS3 protease complexes, derived from the BMS strain, H77 strain or J4L6S strain, as described above, by compounds of the present disclosure. This assay provides an indication of how effective compounds of the present disclosure would be in inhibiting HCV NS3 proteolytic activity.
In order to monitor HCV NS3/4A protease activity, an NS3/4A peptide substrate was used. The substrate was RET S1 (Resonance Energy Transfer Depsipeptide Substrate; AnaSpec, Inc. cat #22991)(FRET peptide), described by Taliani et al. in Anal. Biochem. 240(2):60-67 (1996). The sequence of this peptide is loosely based on the NS4A/NS4B natural cleavage site for the HCV NS3 protease except there is an ester linkage rather than an amide bond at the cleavage site. The peptide also contains a fluorescence donor, EDANS, near one end of the peptide and an acceptor, DABCYL, near the other end. The fluorescence of the peptide is quenched by […] resonance energy transfer (RET) between the donor and the acceptor, but as the NS3 protease cleaves the peptide the products are released from RET quenching and the fluorescence of the donor becomes apparent.
The peptide substrate was incubated with one of the three recombinant NS3/4A protease complexes, in the absence or presence of a compound of the present disclosure. The inhibitory effects of a compound were determined by monitoring the formation of fluorescent reaction product in real time using a Cytofluor Series 4000.
Assay buffer: 50 mM HEPES, pH 7.5; 0.15 M NaCl; 0.1% Triton; 15% Glycerol; 10 mM βME. Substrate: 2 μM final concentration (from a 2 mM stock solution in DMSO stored at −20° C.). HCV NS3/4A protease type 1a (1b), 2-3 nM final concentration (from a 5 μM stock solution in 25 mM HEPES, pH 7.5, 20% glycerol, 300 mM NaCl, 0.2% Triton-X100, 10 mM βME). For compounds with potencies approaching the assay limit, the assay was made more sensitive by adding 50 μg/ml Bovine Serum Albumin (Sigma) to the assay buffer and reducing the end protease concentration to 300 pM.
The assay was performed in a 96-well polystyrene black plate from Falcon. Each well contained 25 μl NS3/4A protease complex in assay buffer, 50 μl of a compound of the present disclosure in 10% DMSO/assay buffer and 25 μl substrate in assay buffer. A control (no compound) was also prepared on the same assay plate. The enzyme complex was mixed with compound or control solution for 1 min before initiating the enzymatic reaction by the addition of substrate. The assay plate was read immediately using the Cytofluor Series 4000 (Perspective Biosystems). The instrument was set to read an emission of […] at 25° C. Reactions were generally followed for approximately 15 min.
The percent inhibition was calculated with the following equation: […]
where δF is the change in fluorescence over the linear range of the curve. A non-linear curve fit was applied to the inhibition-concentration data, and the 50% effective concentration (IC50) was calculated by the use of Excel XLfit software using the equation, y=A+((B−A)/(1+((C/x)̂D))).

[1] = tested on: HCV replicon (strain 1b) in HUH-7 cells; experiment: HCV replicon FRET assay; format: cell-based; conditions: Hepatitis C virus, Huh-7; Table 2; replicon assay variant and unit inferred; read-out: EC50
From the text: An HCV replicon whole cell system was established as described by Lohmann V, Korner F, Koch J, Herian U, Theilmann L, Bartenschlager R., Science 285(5424): 110-3 (1999). This system enabled us to evaluate the effects of our HCV Protease compounds on HCV RNA replication. Briefly, using the HCV strain 1b sequence described in the Lohmann paper (Assession number:AJ238799), an HCV cDNA was synthesized by Operon Technologies, Inc. (Alameda, Calif.), and the full-length replicon was then assembled in plasmid pGem9zf(+) (Promega, Madison, Wis.) using standard molecular biology techniques. The replicon consists of (i) the HCV 5′ UTR fused to the first 12 amino acids of the capsid protein, (ii) the neomycin phosphotransferase gene (neo), (iii) the IRES from encephalomyocarditis virus (EMCV), and (iv) HCV NS3 to NS5B genes and the HCV 3′ UTR. Plasmid DNAs were linearized with ScaI and RNA transcripts were synthesized in vitro using the T7 MegaScript transcription kit (Ambion, Austin, Tex.) according to manufacturer's directions. In vitro transcripts of the cDNA were transfected into the human hepatoma cell line, HUH-7. […] Resulting cell lines were characterized for positive and negative strand RNA production and protein production over time.
The HCV replicon FRET assay was developed to monitor the inhibitory effects of compounds described in the disclosure on HCV viral replication. HUH-7 cells, constitutively expressing the HCV replicon, were grown in Dulbecco's Modified Eagle Media (DMEM) (Gibco-BRL) containing 10% Fetal calf serum (FCS) (Sigma) and 1 mg/ml G418 (Gibco-BRL). Cells were seeded the night before (1.5×10^4 cells/well) in 96-well tissue-culture sterile plates. Compound and no compound controls were prepared in DMEM containing 4% FCS, 1:100 Penicillin/Streptomysin (Gibco-BRL), 1:100 L-glutamine and 5% DMSO in the dilution plate (0.5% DMSO final concentration in the assay). Compound/DMSO mixes were added to the cells and incubated for 4 days at 37° C. After 4 days, cells were first assessed for cytotoxicity using alamar Blue (Trek Diagnotstic Systems) for a CC50 reading. The toxicity of compound (CC50) was determined by adding 1/10th volume of alamar Blue to the media incubating the cells. After 4 h, the fluorescence signal from each well was read, with an excitation wavelength at 530 nm and an emission wavelength of 580 nm, using the Cytofluor Series 4000 (Perspective Biosystems). Plates were then rinsed thoroughly with Phosphate-Buffered Saline (PBS) (3 times 150 μl).

T1 sequence (P27958 1027-1657, one chain of several): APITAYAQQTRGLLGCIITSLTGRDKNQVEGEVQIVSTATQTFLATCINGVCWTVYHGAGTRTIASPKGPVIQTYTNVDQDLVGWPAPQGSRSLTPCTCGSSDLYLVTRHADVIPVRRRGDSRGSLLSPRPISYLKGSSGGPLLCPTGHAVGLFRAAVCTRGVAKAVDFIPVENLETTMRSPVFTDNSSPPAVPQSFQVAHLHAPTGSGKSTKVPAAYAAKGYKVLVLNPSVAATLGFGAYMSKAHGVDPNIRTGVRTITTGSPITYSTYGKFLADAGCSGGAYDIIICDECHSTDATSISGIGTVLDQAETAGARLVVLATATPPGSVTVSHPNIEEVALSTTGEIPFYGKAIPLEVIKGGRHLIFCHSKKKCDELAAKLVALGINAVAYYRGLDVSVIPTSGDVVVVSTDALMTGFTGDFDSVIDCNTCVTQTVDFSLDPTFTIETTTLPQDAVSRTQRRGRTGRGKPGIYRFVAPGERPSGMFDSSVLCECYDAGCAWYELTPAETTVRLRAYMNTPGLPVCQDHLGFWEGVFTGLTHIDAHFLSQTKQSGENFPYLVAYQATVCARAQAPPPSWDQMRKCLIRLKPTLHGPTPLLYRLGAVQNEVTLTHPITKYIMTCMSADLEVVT

| SMILES | IC50 (NS3/4A protease complex) [nM] | EC50 [1] [nM] |
| --- | --- | --- |
| COc1ccc2c(O[C@@H]3C[C@H]4C(=O)N[C@]5(C(=O)NS(=O)(=O)C6CC6)C[C@H]5/C=C\CCCCC[C@H](Nc5nc(-c6ccc(F)cc6F)cs5)C(=O)N4C3)nccc2c1 [Compound 4] | 11 | 13.8 |
| COc1ccc(N[C@H]2CCCCC/C=C\[C@@H]3C[C@@]3(C(=O)NS(=O)(=O)C3CC3)NC(=O)[C@@H]3C[C@@H](Oc4ncc(OC)c5ccc(Cl)cc45)CN3C2=O)cn1 (single isomer, unassigned) [Compound 2] | 6 | 9.1 |
| COc1ccc2c(O[C@@H]3C[C@H]4C(=O)N[C@]5(C(=O)NS(=O)(=O)C6CC6)C[C@H]5/C=C\CCCCC[C@H](Nc5nc(-c6ccc(OC(F)(F)F)cc6)cs5)C(=O)N4C3)nccc2c1 [Compound 3] | 5 | 6.2 |
| COc1cnc(O[C@@H]2C[C@H]3C(=O)N[C@]4(C(=O)NS(=O)(=O)C5CC5)C[C@H]4/C=C\CCCCC[C@H](Nc4nc(-c5ccc(OC(F)(F)F)cc5)cs4)C(=O)N3C2)c2cc(Cl)ccc12 [Compound 6] | 2 | 8.7 |
| COc1ccc2c(O[C@@H]3C[C@H]4C(=O)N[C@]5(C(=O)NS(=O)(=O)C6CC6)C[C@H]5/C=C\CCCCC[C@H](Nc5nc(-c6ccccc6)cs5)C(=O)N4C3)nccc2c1 [Compound 5] | 3 | 8.1 |

— US20090285773A1, “Hepatitis C Virus Inhibitors” (Bristol-Myers Squibb Company, priority 2008, published 2009)
